# Results as given in patent publication US20200121665A1, “PPAR GAMMA MODULATORS FOR TREATING CYSTIC DISEASES” (Indiana University Research and Technology Corporation, priority 2013, published 2020).
# Where two headings read alike, the source gives them in different places.
# Tests used:
# [1] = system: PCK rat; conditions: for Statistics (a): KW % BW, significance compared to control / Statistics (a): Kidney Weight (KW), significance compared to control / KW % BW / Kidney Weight (KW) / LW % BW / Liver % Fibrocystic / Liver Weight (LW): 24 weeks
# Text: PCK rat animal model of slowly-progressing PKD. The PCK rat is an animal model that has a orthologous genetic mutation to the human autosomal recessive polycystic kidney disease (ARPKD), but has the phenotypic characteristics of human ADPKD, including renal and liver fibrocystic disease. The Pck gene of the rat is an orthologue to the PKHD-1 gene responsible for ARPKD. The animal model develops both kidney and liver fibrocystic diseases, and is slow progressing. […] Only females are used in the study.
# Briefly, after weaning, test animals are fed a diet containing increasing doses of a PPARγ modulator, normalized to body weight, and compared to untreated control fed normal diet. A hematocrit is measured to assess the presence or absence of fluid retention. […] The untreated control group fed the same diet without any PPARγ modulators.
# Animals are sacrificed and total body weight is recorded. Total kidney weight is recorded, total liver weight is recorded, and heart weight is recorded. Blood is collected via cardiac puncture, and serum and plasma samples are collected. The liver and kidney were embedded in paraffin and transversely sectioned and stained with hematoxylin, and eosin. The percent kidney weight to body weight was calculated. After histology on the kidney, renal cyst volume was determined through point count stereology methods. From the total liver weight, the percent liver to body weight was calculated. Following histology and picrosiruis red staining, the percent fibrosis can be determined through point count stereology methods. Heart weight is determined and the percent heart weight to body weight is calculated to assess heart disease, such as due to fluid retention, a reported side effect associated with PPARγ agonist treatment. Hearts are preserved in 4% paraformaldehyde. Liver enzymes, glucose levels, and ion levels are evaluated using the blood and urine samples.
# [2] = system: PCK rat; conditions: 14 week study, 20 mg/kg BW; cited from earlier work
compound,measurement,setting,value
"CN(CCOc1ccc(CC2SC(=O)NC2=O)cc1)c1ccccn1 (centres unmarked) [Rosiglitazone, rosiglitazone]","Statistics (a): KW % BW, significance compared to control",[1]; 0.04 mg/kg BW diet,S
same,"Statistics (a): Kidney Weight (KW), significance compared to control",[1]; 0.04 mg/kg BW diet,S
same,KW % BW,"[1]; 0.04 mg/kg BW diet, n = 8",0.95 ± 0.15%
same,Kidney Weight (KW),"[1]; 0.04 mg/kg BW diet, n = 8",3.68 ± 0.14 g
same,LW % BW,"[1]; 0.04 mg/kg BW diet, n = 8",7.11 ± 0.27%
same,Liver % Fibrocystic,"[1]; 0.04 mg/kg BW diet, n = 8",35.36 ± 3.74%
same,Liver Weight (LW),"[1]; 0.04 mg/kg BW diet, n = 8",24.23 ± 0.10 g
same,KW % BW,"[1]; 0.4 mg/kg BW diet, n = 8",1.27 ± 0.08%
same,Kidney Weight (KW),"[1]; 0.4 mg/kg BW diet, n = 8",4.27 ± 0.22 g
same,LW % BW,"[1]; 0.4 mg/kg BW diet, n = 8",6.50 ± 0.57%
same,Liver % Fibrocystic,"[1]; 0.4 mg/kg BW diet, n = 8",36.81 ± 3.61%
same,Liver Weight (LW),"[1]; 0.4 mg/kg BW diet, n = 8",22.05 ± 2.07 g
same,"Statistics (a): KW % BW, significance compared to control",[1]; 4.0 mg/kg BW diet,S
same,"Statistics (a): Kidney Weight (KW), significance compared to control",[1]; 4.0 mg/kg BW diet,S
same,KW % BW,"[1]; 4.0 mg/kg BW diet, n = 3",0.94 ± 0.06%
same,Kidney Weight (KW),"[1]; 4.0 mg/kg BW diet, n = 3",3.56 ± 0.26 g
same,LW % BW,"[1]; 4.0 mg/kg BW diet, n = 3",5.97 ± 1.38%
same,Liver % Fibrocystic,"[1]; 4.0 mg/kg BW diet, n = 3",36.17 ± 0.38%
same,Liver Weight (LW),"[1]; 4.0 mg/kg BW diet, n = 3",22.66 ± 5.39 g
same,serum electrolytes,[1]; at any concentration,not altered
same,test animals died or had to be sacrificed during treatment due to cholangitis,[1]; high dose group,9/12
same,glucose,"[1]; rat, in vivo",not observed
same,hematocrits vs control animals,"[1]; rat, in vivo",not different from the control animals
same,side effects (increased body weight or cholangitis),"[1]; rat, in vivo",no detected side effects
CCc1ccc(CCOc2ccc(CC3SC(=O)NC3=O)cc2)nc1 (centres unmarked) [pioglitazone],kidney function by serum analysis,[2],well-preserved kidney function
same,liver enzymes by serum analysis,[2],increased
